Results taken from patent US20010047524A1, “Methods and tissue culture media for inducing somatic embryogenesis, agrobacterium-mediated transformation and efficient regeneration of cacao plants” (priority 1997, published 2001).

Test system: staminode and petal base explants of cacao genotype Sca-6
Test: Somatic embryogenesis from cacao floral explants cultured on PCG medium containing various concentrations of TDZ
Assay type: cell-based, Theobroma cacao L.
Protocol: Primary callus growth (PCG) medium was prepared by combining the following solutions and compounds (per liter): 100 ml each DKW macro solutions A and B, 10 ml DKW micro solution, 1 ml DKW vitamin solution, 20 g glucose, 250 mg glutamine, 100 mg myo-inositol, 100 ml 2,4-D solution, 10 ml TDZ solution, and 2.0 g phytagel, and the pH was adjusted to 5.8.
The staminodes and petal base explants from the four flower buds were then transferred into a Petri dish containing 30 ml of PCG medium. Any fused staminodes and petal base explants were separated and explants were distributed evenly across the medium. The Petri dishes were sealed with a double layer of parafilm and cultures were maintained in the dark at 25±2° C. for 14 days (FIG. 2a). Growth reduction, senescence, and tissue browning may occur with subculture intervals longer than 14 days.
The staminode and petal base explants were then transferred from a PCG medium to a Petri dish containing 30 ml of SCG medium. The dishes were sealed and the cultures were maintained in the dark for 14 days at 25±2° C. Globular calli were produced on the entire tissue explant at the end of this culture period (FIG. 2b).
Staminode and petal base explants and calli derived in the callus induction step were transferred to Petri dishes containing 30 ml of ED medium. Explants were cultured in the dark for 14 days at 25±2° C. Explants were then subcultured onto the fresh ED medium and maintained in the dark for another 14 days. By that time, numerous somatic embryos at globular and heart-shaped stages of development were visible on the embryogenic calli (FIG. 2c and d).
The effect of TDZ concentration on somatic embryogenesis from staminode explants of five cacao genotypes was determined and is shown in FIG. 3. Staminodes were cultured on PCG medium containing various concentrations of TDZ. […] Data were collected two months after culture initiation. Each treatment contained 20 staminodes per plate with three replicate plates. The values shown in FIG. 3 represent the average percentage rates of embryo-producing staminodes from three repeated experiments. Up to 100% of cultured staminode and over 60% of petal base explants from cacao genotype Sca-6 produced somatic embryos (FIG. 3).
The effect of TDZ concentration on somatic embryo production from staminode explants of five cacao genotypes was determined and is shown in FIG. 4. Staminodes were cultured on PCG medium containing various concentrations of TDZ. […] Data were collected two months after culture initiation. Each treatment contained 20 staminodes per plate with three replica plates. Values represent the average number of somatic embryos per responsive staminode from three repeated experiments. […]

[1] = two months after culture initiation, FIG. 4

Compound: O=C(Nc1ccccc1)Nc1cnns1 [TDZ, thidiazuron]
- petal base explants that produced somatic embryos (FIG. 3): over 60%
- cultured staminode explants that produced somatic embryos (PCG medium with various TDZ concentrations, then SCG and ED medium, two months after culture initiation, FIG. 3): Up to 100%
- average number of primary somatic embryos per responsive staminode [1]: about 46
- primary somatic embryos produced by a single staminode explant (maximum) [1]: up to 140
